Where two headings read alike, the source gives them in different places.
Molecular target: T1, human M2 receptor (Homo sapiens, UniProt P08172)
T1 sequence (P08172 1-466): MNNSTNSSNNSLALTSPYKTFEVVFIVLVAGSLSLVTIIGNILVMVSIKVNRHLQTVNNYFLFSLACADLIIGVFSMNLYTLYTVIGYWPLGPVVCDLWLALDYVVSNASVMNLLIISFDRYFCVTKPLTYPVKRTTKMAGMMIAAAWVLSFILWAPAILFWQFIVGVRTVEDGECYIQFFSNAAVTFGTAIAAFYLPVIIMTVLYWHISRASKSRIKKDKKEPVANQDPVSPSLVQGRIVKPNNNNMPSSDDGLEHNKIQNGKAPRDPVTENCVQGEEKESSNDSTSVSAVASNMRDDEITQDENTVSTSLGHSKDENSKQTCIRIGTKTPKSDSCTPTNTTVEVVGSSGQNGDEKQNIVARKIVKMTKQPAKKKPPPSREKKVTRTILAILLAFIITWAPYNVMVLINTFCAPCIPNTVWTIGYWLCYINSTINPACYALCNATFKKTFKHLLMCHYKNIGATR

[1] = Receptor activity EC50, M2-GIRK1/4 activation test, acetylcholine at EC20, allosteric potency, in some cases mean values from two or more determinations
[2] = Receptor activity EC50, allosteric potency at EC20 acetylcholine, M2-GIRK1/4 reporter cells, in some cases mean of two or more determinations
[3] = read-out: Efficiency, boosting of the acetylcholine effect at EC20 acetylcholine concentration, M2-GIRK1/4 reporter cells

| Structure (SMILES) | EC50 [1] [nM] | Emax (read-out: Efficiency) [%] | EC50 [2] [nM] | Emax [3] [%] |
| --- | --- | --- | --- | --- |
| N#CN1CCCN(c2ccc3c(=O)c(C(=O)N[C@@H](C4CC4)C(F)(F)F)cn(-c4c(F)cc(F)cc4F)c3n2)C1=O [Example 380, 7-(3-Cyano-2-oxotetrahydropyrimidin-1(2H)-yl)-N-[(1S)-1-cyclopropyl-2,2,2-trifluoroethyl]-4-oxo-1-(2,4,6-trifluorophenyl)-1,4-dihydro-1,8-naphthyridine-3-carboxamide] | 46 |  |  |  |
| C[C@@H]1CN(c2ccc3c(=O)c(C(=O)N[C@@H](C)COC(F)(F)F)cn(-c4c(F)cc(F)cc4F)c3n2)C(=O)N1 [Example 381, 7-[(4R)-4-Methyl-2-oxoimidazolidin-1-yl]-4-oxo-N-[(2S)-1-(trifluoromethoxy)propan-2-yl]-1-(2,4,6-trifluorophenyl)-1,4-dihydro-1,8-naphthyridine-3-carboxamide] | 23 |  |  |  |
| CC(C)(NC(=O)c1cn(-c2c(F)cc(F)cc2F)c2nc(N3CCCN(CCO)C3=O)ccc2c1=O)C(F)F [Example 382, N-(1,1-Difluoro-2-methylpropan-2-yl)-7-[3-(2-hydroxyethyl)-2-oxotetrahydropyrimidin-1(2H)-yl]-4-oxo-1-(2,4,6-trifluorophenyl)-1,4-dihydro-1,8-naphthyridine-3-carboxamide] | 72 |  |  |  |
| CC(C)(CC(F)(F)F)NC(=O)c1cn(-c2c(F)cc(F)cc2F)c2nc(N3CCCN(CCO)C3=O)ccc2c1=O [Example 383, 7-[3-(2-Hydroxyethyl)-2-oxotetrahydropyrimidin-1(2H)-yl]-4-oxo-N-(4,4,4-trifluoro-2-methylbutan-2-yl)-1-(2,4,6-trifluorophenyl)-1,4-dihydro-1,8-naphthyridine-3-carboxamide] | 18 |  |  |  |
| O=C(N[C@H](C1CC1)C(F)(F)F)c1cn(-c2c(Cl)cc(F)cc2Cl)c2nc(N3C[C@@H](O)CC3=O)ccc2c1=O [Example 387, N-[(1R)-1-Cyclopropyl-2,2,2-trifluoroethyl]-1-(2,6-dichloro-4-fluorophenyl)-7-[(4S)-4-hydroxy-2-oxopyrrolidin-1-yl]-4-oxo-1,4-dihydro-1,8-naphthyridine-3-carboxamide] | 42 |  |  |  |
| CC[C@@H](NC(=O)c1cn(-c2c(Cl)cc(F)cc2Cl)c2nc(N3C[C@@H](O)CC3=O)ccc2c1=O)C(F)(F)F [Example 388, 1-(2,6-Dichloro-4-fluorophenyl)-7-[(4S)-4-hydroxy-2-oxopyrrolidin-1-yl]-4-oxo-N-[(2R)-1,1,1-trifluorobutan-2-yl]-1,4-dihydro-1,8-naphthyridine-3-carboxamide] | 52 | 89 |  |  |
| CC[C@H](NC(=O)c1cn(-c2c(Cl)cc(F)cc2Cl)c2nc(N3C[C@@H](O)CC3=O)ccc2c1=O)C(F)(F)F [Example 389, 1-(2,6-Dichloro-4-fluorophenyl)-7-[(4S)-4-hydroxy-2-oxopyrrolidin-1-yl]-4-oxo-N-[(2S)-1,1,1-trifluorobutan-2-yl]-1,4-dihydro-1,8-naphthyridine-3-carboxamide] | 38 | 85.5 |  |  |
| C[C@@H]1C[C@](C)(O)CN1c1ccc2c(=O)c(C(=O)N[C@@H](C)C(F)(F)F)cn(-c3c(F)cc(F)cc3Cl)c2n1 [Example 390, 1-(2-Chloro-4,6-difluorophenyl)-7-[(2R,4S)-4-hydroxy-2,4-dimethylpyrrolidin-1-yl]-4-oxo-N-[(2S)-1,1,1-trifluoropropan-2-yl]-1,4-dihydro-1,8-naphthyridine-3-carboxamide] | 14 |  |  |  |
| CC(C)(CC(F)(F)F)NC(=O)c1cn(-c2c(F)cc(F)cc2Cl)c2nc(N3C[C@@H](O)[C@H](O)C3)ccc2c1=O [Example 391, 1-(2-Chloro-4,6-difluorophenyl)-7-[(3R,4R)-3,4-dihydroxypyrrolidin-1-yl]-4-oxo-N-(4,4,4-trifluoro-2-methylbutan-2-yl)-1,4-dihydro-1,8-naphthyridine-3-carboxamide] | 8 |  |  |  |
| CC(C)(CC(F)(F)F)NC(=O)c1cn(-c2c(F)cc(F)cc2Cl)c2nc(N3CCNC3=O)ccc2c1=O [Example 394, 1-(2-Chloro-4,6-difluorophenyl)-4-oxo-7-(2-oxoimidazolidin-1-yl)-N-(4,4,4-trifluoro-2-methylbutan-2-yl)-1,4-dihydro-1,8-naphthyridine-3-carboxamide] | 7 |  |  |  |
| CC(C)(CC(F)(F)F)NC(=O)c1cn(-c2c(F)cc(F)cc2Cl)c2nc(N3C[C@@H](O)CC3=O)ccc2c1=O [Example 395, 1-(2-Chloro-4,6-difluorophenyl)-7-[(4S)-4-hydroxy-2-oxopyrrolidin-1-yl]-4-oxo-N-(4,4,4-trifluoro-2-methylbutan-2-yl)-1,4-dihydro-1,8-naphthyridine-3-carboxamide] |  |  | 7 | 100 |
| O=C(NC12CC(F)(C1)C2)c1cn(-c2c(F)cc(F)cc2Cl)c2nc(N3C[C@@H](O)CC3=O)ccc2c1=O [Example 397, 1-(2-Chloro-4,6-difluorophenyl)-N-(3-fluorobicyclo[1.1.1]pent-1-yl)-7-[(4S)-4-hydroxy-2-oxopyrrolidin-1-yl]-4-oxo-1,4-dihydro-1,8-naphthyridine-3-carboxamide] |  |  | 32 | 90 |
| O=C(NC12CC(F)(C1)C2)c1cn(-c2c(F)cc(F)cc2Cl)c2nc(N3C[C@@H](O)[C@H](O)C3)ccc2c1=O [Example 401, 1-(2-Chloro-4,6-difluorophenyl)-7-[(3R,4R)-3,4-dihydroxypyrrolidin-1-yl]-N-(3-fluorobicyclo[1.1.1]pent-1-yl)-4-oxo-1,4-dihydro-1,8-naphthyridine-3-carboxamide] |  |  | 41 | 95.5 |
| CC(C)(NC(=O)c1cn(-c2c(F)cc(F)cc2F)c2nc(N3C[C@@H](O)[C@H](O)C3)ccc2c1=O)C(F)(F)F [Example 403] |  |  | 32 | 100 |
| O=C(N[C@H](C1CC1)C(F)(F)F)c1cn(-c2c(F)cc(F)cc2F)c2nc(N3CC4CC4(O)C3)ccc2c1=O (stereo partly drawn) [Example 405, N-[(1R)-1-Cyclopropyl-2,2,2-trifluoroethyl]-7-[1-hydroxy-3-azabicyclo[3.1.0]hex-3-yl]-4-oxo-1-(2,4,6-trifluorophenyl)-1,4-dihydro-1,8-naphthyridine-3-carboxamide] |  |  | 8 | 95.5 |
| CC[C@@H](NC(=O)c1cn(-c2c(F)cc(F)cc2Cl)c2nc(N3CC4CC4(O)C3)ccc2c1=O)C(F)(F)F (stereo partly drawn) [Example 406, 1-(2-Chloro-4,6-difluorophenyl)-7-[1-hydroxy-3-azabicyclo[3.1.0]hex-3-yl]-4-oxo-N-[(2R)-1,1,1-trifluorobutan-2-yl]-1,4-dihydro-1,8-naphthyridine-3-carboxamide] |  |  | 9 | 88 |
| C[C@H](NC(=O)c1cn(-c2c(F)cc(F)cc2Cl)c2nc(N3CC4CC4(O)C3)ccc2c1=O)C(F)(F)F (stereo partly drawn) [Example 408, 1-(2-Chloro-4,6-difluorophenyl)-7-[1-hydroxy-3-azabicyclo[3.1.0]hex-3-yl]-4-oxo-N-[(2S)-1,1,1-trifluoropropan-2-yl]-1,4-dihydro-1,8-naphthyridine-3-carboxamide] |  |  | 9 | 94 |
| C[C@H](NC(=O)c1cn(-c2c(F)cc(F)cc2Cl)c2nc(N3CCNC3=O)ccc2c1=O)C(F)(F)F [Example 419, 1-(2-Chloro-4,6-difluorophenyl)-4-oxo-7-(2-oxoimidazolidin-1-yl)-N-[(2S)-1-1,1,1-trifluoropropan-2-yl]-1,4-dihydro-1,8-naphthyridine-3-carboxamide] |  |  | 46 | 91.5 |
